Results on 38 compounds are retold here after patent publication US9012651B2, “TRPV3 modulators” (AbbVie Inc., priority 2011, dated 2015).

Chain of human TRPV3 receptors (Q8NET8 whole entry): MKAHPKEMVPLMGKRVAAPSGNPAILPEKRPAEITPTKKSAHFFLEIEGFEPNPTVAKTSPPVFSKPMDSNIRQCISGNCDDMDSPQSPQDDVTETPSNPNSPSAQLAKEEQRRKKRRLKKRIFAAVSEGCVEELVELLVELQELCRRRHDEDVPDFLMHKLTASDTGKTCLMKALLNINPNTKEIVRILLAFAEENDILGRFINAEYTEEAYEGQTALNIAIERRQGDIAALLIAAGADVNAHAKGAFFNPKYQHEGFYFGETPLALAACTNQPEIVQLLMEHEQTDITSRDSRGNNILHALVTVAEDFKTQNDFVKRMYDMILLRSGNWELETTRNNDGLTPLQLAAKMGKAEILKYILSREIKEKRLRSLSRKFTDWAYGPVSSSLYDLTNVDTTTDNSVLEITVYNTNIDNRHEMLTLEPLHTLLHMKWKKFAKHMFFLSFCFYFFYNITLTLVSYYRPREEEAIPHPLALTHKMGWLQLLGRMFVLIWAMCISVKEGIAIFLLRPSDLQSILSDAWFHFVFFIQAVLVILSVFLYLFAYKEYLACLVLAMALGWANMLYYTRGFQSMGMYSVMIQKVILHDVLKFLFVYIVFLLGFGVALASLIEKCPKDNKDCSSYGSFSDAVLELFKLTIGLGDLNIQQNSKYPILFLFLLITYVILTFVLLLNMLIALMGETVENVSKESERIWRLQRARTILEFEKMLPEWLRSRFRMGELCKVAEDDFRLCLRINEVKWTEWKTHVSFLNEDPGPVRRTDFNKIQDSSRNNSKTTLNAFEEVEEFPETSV

In this test the target is human TRPV3 receptors (Homo sapiens (Human), UniProt Q8NET8). Description: Calcium flux assay (FLIPR TETRA), inhibition of the 2-APB response. The test is classed as cell-based. As to conditions: recombinant HEK293 cells stably expressing TRPV3, Calcium-4 dye, 2-APB at its EC80. The method, boiled down:
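Responses are given relative to the maximal 2-APB signal in the absence of compound, using peak fluorescence over baseline. Measured by FLIPR Tetra calcium flux in stable human and mouse TRPV3 HEK293 cells after 90-120 min dark dye incubation.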
Background: Calcium assays in cells follow changes in intracellular calcium, usually with a dye or a luminescent sensor.
The IC50 is the concentration that inhibits the measured activity by half. For the compound `CC(C)[C@@H](NCc1nc(-c2ccc(C(F)(F)F)nc2)ccc1F)C(N)=O` [Example 117, (R)-2-((5-fluoro-6′-(trifluoromethyl)-2,3′-bipyridin-6-yl)methylamino)-3-methylbutanamide], the IC50 is over 20 µM.

With `CC(C)[C@H](CO)NCc1cc(C(F)(F)F)cc(-c2ccc(C(F)(F)F)nc2)n1` [Example 118, (2R)-2-({[4,6′-bis(trifluoromethyl)-2,3′-bipyridin-6-yl]methyl}amino)-3-methylbutan-1-ol], the IC50 is over 20 µM.

Consider `CC(C)[C@H](NCc1nc(-c2ccc(C(F)(F)F)nc2)ccc1F)C(N)=O` [Example 119, (S)-2-((5-fluoro-6′-(trifluoromethyl)-2,3′-bipyridin-6-yl)methylamino)-3-methylbutanamide], for which the half-inhibitory concentration (IC50) is over 20 µM.

Turning to `C[C@@H](O)[C@H](NCc1nc(-c2ccc(C(F)(F)F)nc2)ccc1F)C(N)=O` [Example 120, (2S,3R)-2-((5-fluoro-6′-(trifluoromethyl)-2,3′-bipyridin-6-yl)methylamino)-3-hydroxybutanamide], the half-inhibitory concentration (IC50) is over 20 µM.

As for `C[C@@H](O)[C@@H](CO)NCc1nc(-c2ccc(C(F)(F)F)nc2)ccc1F` [Example 121, (2R,3R)-2-({[5-fluoro-6′-(trifluoromethyl)-2,3′-bipyridin-6-yl]methyl}amino)butane-1,3-diol], the IC50 was 6.18 µM.

In the case of `O[C@H]1CCCC[C@@H]1NCc1nc(-c2ccc(C(F)(F)F)nc2)ccc1F` [Example 122, (1S,2S)-2-({[5-fluoro-6′-(trifluoromethyl)-2,3′-bipyridin-6-yl]methyl}amino)cyclohexanol], the half-inhibitory concentration (IC50) was 3.94 µM.

Consider `O[C@@H]1CCCC[C@@H]1NCc1nc(-c2ccc(C(F)(F)F)nc2)ccc1F` [Example 123, (1R,2S)-2-({[5-fluoro-6′-(trifluoromethyl)-2,3′-bipyridin-6-yl]methyl}amino)cyclohexanol], for which the IC50 amounted to 8.55 µM.

For `C=C(c1ccccc1)c1ccc(F)c(CN[C@@H](CO)C(C)C)n1` [Example 124, (2R)-2-({[3-fluoro-6-(1-phenylethenyl)pyridin-2-yl]methyl}amino)-3-methylbutan-1-ol], the IC50 was found to be 0.92 µM.

`C=C(c1ccc(F)cc1)c1ccc(F)c(CN[C@@H](CO)C(C)C)n1` [Example 125, (2R)-2-[({3-fluoro-6-[1-(4-fluorophenyl)ethenyl]pyridin-2-yl}methyl)amino]-3-methylbutan-1-ol]: the concentration for half-maximal inhibition (IC50) stood at 1.63 µM.

In the case of `CC(C)[C@H](CO)NCc1nc(C2=CCCCC2)ccc1F` [Example 126, (2R)-2-({[6-(cyclohex-1-en-1-yl)-3-fluoropyridin-2-yl]methyl}amino)-3-methylbutan-1-ol], the half-inhibitory concentration (IC50) was determined as 0.74 µM.

On to `CC(c1ccccc1)c1ccc(F)c(CN[C@@H](CO)C(C)C)n1` (stereo partly drawn) [Example 127, (2R)-2-({[3-fluoro-6-(1-phenylethyl)pyridin-2-yl]methyl}amino)-3-methylbutan-1-ol], for which the IC50 was found to be 1.44 µM.

Take `CC(c1ccc(F)cc1)c1ccc(F)c(CN[C@@H](CO)C(C)C)n1` (stereo partly drawn) [Example 128, (2R)-2-[({3-fluoro-6-[1-(4-fluorophenyl)ethyl]pyridin-2-yl}methyl)amino]-3-methylbutan-1-ol]: the IC50 amounted to 0.48 µM.

`C[C@@H](O)[C@H](NCc1nc(-c2ccc(C(F)(F)F)nc2)ccc1F)C(=O)Nc1ccc2ccccc2c1` [Example 130, N^2-{[5-fluoro-6′-(trifluoromethyl)-2,3′-bipyridin-6-yl]methyl}-N-naphthalen-2-yl-L-threoninamide]: the IC50 turned out to be 2.55 µM.

For the compound `CC(C)[C@H](CO)NCc1nc(-c2ccc(C(F)(F)F)cc2)ncc1F` [Example 131, (2R)-2-[({5-fluoro-2-[4-(trifluoromethyl)phenyl]pyrimidin-4-yl}methyl)amino]-3-methylbutan-1-ol], the IC50 was determined as 0.46 µM.

Consider `OCC1(NCc2ccnc(-c3ccc(C(F)(F)F)cc3)n2)CCC1` [Example 132, {1-[({2-[4-(trifluoromethyl)phenyl]pyrimidin-4-yl}methyl)amino]cyclobutyl}methanol], for which the IC50 was over 20 µM.

On to `OCC1(NCc2ccnc(-c3ccc(C(F)(F)F)cc3)n2)CCCC1` [Example 133, {1-[({2-[4-(trifluoromethyl)phenyl]pyrimidin-4-yl}methyl)amino]cyclopentyl}methanol], for which the IC50 turned out to be 9.32 µM.

For the compound `OCC1(NCc2ccnc(-c3ccc(C(F)(F)F)cc3)n2)CCCCC1` [Example 134, {1-[({2-[4-(trifluoromethyl)phenyl]pyrimidin-4-yl}methyl)amino]cyclohexyl}methanol], the IC50 was found to be 11 µM.

`OCC1(NCc2ccnc(-c3ccc(C(F)(F)F)cc3)n2)CC1` [Example 135, {1-[({2-[4-(trifluoromethyl)phenyl]pyrimidin-4-yl}methyl)amino]cyclopropyl}methanol]: the IC50 is over 20 µM.

Consider `CC(C)(CO)NCc1ccnc(-c2ccc(C(F)(F)F)cc2)n1` [Example 136, 2-methyl-2-[({2-[4-(trifluoromethyl)phenyl]pyrimidin-4-yl}methyl)amino]propan-1-ol], for which the IC50 was over 20 µM.

As for `C[C@H](CO)NCc1ccnc(-c2ccc(C(F)(F)F)cc2)n1` [Example 137, (2R)-2-[({2-[4-(trifluoromethyl)phenyl]pyrimidin-4-yl}methyl)amino]propan-1-ol], the IC50 was 7.83 µM.

In the case of `CC[C@H](CO)NCc1ccnc(-c2ccc(C(F)(F)F)cc2)n1` [Example 138, (2R)-2-[({2-[4-(trifluoromethyl)phenyl]pyrimidin-4-yl}methyl)amino]butan-1-ol], the IC50 is 3.05 µM.

For `OC[C@H](NCc1ccnc(-c2ccc(C(F)(F)F)cc2)n1)c1ccccc1` [Example 139, (2R)-2-phenyl-2-[({2-[4-(trifluoromethyl)phenyl]pyrimidin-4-yl}methyl)amino]ethanol], the IC50 came to 8.08 µM.

Consider `OC[C@@H](Cc1ccccc1)NCc1ccnc(-c2ccc(C(F)(F)F)cc2)n1` [Example 140, (2R)-3-phenyl-2-[({2-[4-(trifluoromethyl)phenyl]pyrimidin-4-yl}methyl)amino]propan-1-ol], for which the IC50 was over 20 µM.

`CCC[C@H](CO)NCc1ccnc(-c2ccc(C(F)(F)F)cc2)n1` [Example 141, (2R)-2-[({2-[4-(trifluoromethyl)phenyl]pyrimidin-4-yl}methyl)amino]pentan-1-ol]: the concentration for half-maximal inhibition (IC50) was determined as 4.9 µM.

For `CC(C)C[C@H](CO)NCc1ccnc(-c2ccc(C(F)(F)F)cc2)n1` [Example 142, (2R)-4-methyl-2-[({2-[4-(trifluoromethyl)phenyl]pyrimidin-4-yl}methyl)amino]pentan-1-ol], the IC50 turned out to be 7.3 µM.

On to `CCC(C)C(CO)NCc1ccnc(-c2ccc(C(F)(F)F)cc2)n1` (centres unmarked) [Example 143, 3-methyl-2-[({2-[4-(trifluoromethyl)phenyl]pyrimidin-4-yl}methyl)amino]pentan-1-ol], for which the IC50 amounted to 12.4 µM.

In the case of `COCC(CO)NCc1ccnc(-c2ccc(C(F)(F)F)cc2)n1` (centres unmarked) [Example 144, 3-methoxy-2-[({2-[4-(trifluoromethyl)phenyl]pyrimidin-4-yl}methyl)amino]propan-1-ol], the 50% inhibitory concentration (IC50) is 15.6 µM.

In the case of `OC[C@H](NCc1ccnc(-c2ccc(C(F)(F)F)cc2)n1)C1CC1` [Example 145, (2R)-2-cyclopropyl-2-[({2-[4-(trifluoromethyl)phenyl]pyrimidin-4-yl}methyl)amino]ethanol], the IC50 came out at 3.05 µM.

Turning to `OC[C@H](NCc1ccnc(-c2ccc(C(F)(F)F)cc2)n1)C1CCCCC1` [Example 146, (2R)-2-cyclohexyl-2-[({2-[4-(trifluoromethyl)phenyl]pyrimidin-4-yl}methyl)amino]ethanol], the IC50 was determined as 8.65 µM.

As for `CC(C)(C)[C@H](CO)NCc1ccnc(-c2ccc(C(F)(F)F)cc2)n1` [Example 147, (2R)-3,3-dimethyl-2-[({2-[4-(trifluoromethyl)phenyl]pyrimidin-4-yl}methyl)amino]butan-1-ol], the IC50 worked out at 6.43 µM.

With `CC(O)C(C)NCc1ccnc(-c2ccc(C(F)(F)F)cc2)n1` (centres unmarked) [Example 148, 3-[({2-[4-(trifluoromethyl)phenyl]pyrimidin-4-yl}methyl)amino]butan-2-ol], the half-maximal inhibitory concentration (IC50) turned out to be 1.87 µM.

On to `C[C@H](O)[C@H](CO)NCc1ccnc(-c2ccc(C(F)(F)F)cc2)n1` [Example 149, (2S,3S)-2-[({2-[4-(trifluoromethyl)phenyl]pyrimidin-4-yl}methyl)amino]butane-1,3-diol], for which the IC50 is over 20 µM.

For the compound `C[C@@H](O)[C@@H](CO)NCc1ccnc(-c2ccc(C(F)(F)F)cc2)n1` [Example 150, (2R,3R)-2-[({2-[4-(trifluoromethyl)phenyl]pyrimidin-4-yl}methyl)amino]butane-1,3-diol], the IC50 is 3.82 µM.

`C[C@H](O)[C@@H](CO)NCc1ccnc(-c2ccc(C(F)(F)F)cc2)n1` [Example 151, (2R,3S)-2-[({2-[4-(trifluoromethyl)phenyl]pyrimidin-4-yl}methyl)amino]butane-1,3-diol]: the IC50 was over 20 µM.

Regarding `C[C@@H](O)[C@H](CO)NCc1ccnc(-c2ccc(C(F)(F)F)cc2)n1` [Example 152, (2S,3R)-2-[({2-[4-(trifluoromethyl)phenyl]pyrimidin-4-yl}methyl)amino]butane-1,3-diol], the IC50 is over 20 µM.

With `OC[C@H](NCc1ccnc(-c2ccc(C(F)(F)F)cc2)n1)[C@@H](O)c1ccccc1` [Example 153, (1S,2S)-1-phenyl-2-[({2-[4-(trifluoromethyl)phenyl]pyrimidin-4-yl}methyl)amino]propane-1,3-diol], the IC50 came out at 9.31 µM.

`OC[C@@H](NCc1ccnc(-c2ccc(C(F)(F)F)cc2)n1)[C@H](O)c1ccccc1` [Example 154, (1R,2R)-1-phenyl-2-[({2-[4-(trifluoromethyl)phenyl]pyrimidin-4-yl}methyl)amino]propane-1,3-diol]: the IC50 is over 20 µM.

As for `CC(C)[C@@H](CO)NCc1ccnc(-c2ccc(C(F)(F)F)cc2)n1` [Example 155, (2S)-3-methyl-2-[({2-[4-(trifluoromethyl)phenyl]pyrimidin-4-yl}methyl)amino]butan-1-ol], the IC50 is over 20 µM.
